# According to patent EP4772500A1, “NOVEL ISOXAZOLE COMPOUND AS TM4SF5-SPECIFIC INHIBITOR AND USE THEREOF” (Seoul National University R&DB Foundation, priority 2023, dated 2025):
# How the values were obtained:
# [1] = test system: liver cancer patient-derived cancer fragments (HCC cube) confirmed to express TM4SF5; assay: TM4SF5-expressing HCC-PDX (patient-derived tissue xenograft) model; format: in vivo, NOD/SCID mice; settings: for body weight: 5 mg/kg IP twice a week (FIG. 21c); for tumor volume: vs vehicle (FIG. 21c); for PD-L1 expression / SLAMF7 staining / expression of TM4SF5: immunohistochemistry (FIG. 21e); for expressions of Ki67, AFP, F4/80, CCL2 and CCL5, and laminin γ2: immunohistochemistry (FIG. 21d); for cancer formation: immunohistochemistry or H&E staining (FIG. 21d)
# Experimental: The experiment was conducted by obtaining patient-derived liver cancer segments (P0; HCC cube, 1 mm^3) confirmed to express TM4SF5 from Seoul National University Hospital, which passed the normal IRB approval process (H-2102-059-1195). The hair from the right thigh to the flank of 6-week-old male NOD/SCID mice was removed, and the mice were anesthetized by inhalation with […] isoflurane. Thereafter, a cancer segment was implanted into the right […] of the mice. When the cancer segments were engrafted and grew beyond a certain size at 4 to 5 weeks after implanting the tissue, the animals were sacrificed to obtain cancer segments (P1). The cancer segments were cut into a size of 1 mm^3 and placed in cryotubes with Recovery-Cell Culture Freezing Medium (Gibco) and stored in a […] liquid nitrogen tank. After obtaining P2 and P3 cancer segments in the same manner as above, one P3 cancer segment (1 mm^3) was implanted per 6-week-old male NOD/SCID mouse to establish the HCC-PDX mouse model used in this experiment. From the 8th day after implanting the cancer segments, vehicle, drug ST-5-001, or ST-5-002 was intraperitoneally injected at 5 mg/kg twice a week for a total of 6 times. On the 28th day after implanting the cancer tissue, the animals were sacrificed, and liver cancer tissues were obtained and used for analysis.
# (a-d) A TM4SF5-expressing HCC-PDX model was established by implanting liver cancer patient-derived cancer fragments (HCC cube, 1 mm^3), confirmed to express TM4SF5, into the right thigh of 6-week-old male NOD/SCID mice (n=8) deficient in T, B, and NK immune cells. Starting from the 8th day after the tissue implantation, vehicle, drug ST-5-001, or ST-5-002 was intraperitoneally injected at 5 mg/kg twice a week on the indicated dates (a). After 6 injections, the animals were sacrificed on the 28th day after the cancer tissue implantation, liver tissues were obtained, and images of the livers were taken (b). From the 8th day after the implantation, body weight and tumor volume were measured and recorded on each drug injection day (c). Meanwhile, for a portion of the liver tissues, the expression level, distribution, and localization of each factor, as well as the degree of damage to the liver cancer tissue, were confirmed through immunohistochemistry or H&E staining for the given protein factors (d).
# [2] = test system: Human Jurkat T cells; assay: T cell activation (Granzyme B, PD-1) after PMA/INO; format: cell-based; settings: for activation by PMA/INO (Granzyme B production): PMA (10 ng/ml) and INO (1 µg/ml), 24 hours (FIG. 18a)
# Experimental: (a) Human Jurkat T cells were activated by treating with PMA (10 ng/ml) and INO (1 µg/ml) for 24 hours. A non-treated state was also included as a control. […] (b) Human Jurkat T cells were either not treated or treated with PMA (25 ng/ml) and INO (1 µg/ml) for 24 hours, and IL-21 was treated at a level of 50 ng/ml for the last 6 hours. Simultaneously with the PMA/INO treatment, ST-5-002 was treated or not treated at 2.5 µM. At this time, the expression levels of Granzyme B and PD-1, or the phosphorylation of Ser473 of AKTs and Thr202/Tyr204 of ERKs, were enhanced by PMA/INO.
# [3] = biological target: T1, TM4SF5 (Homo sapiens, UniProt O14894); assay: TM4SF5 expression-dependent cell line models (summary statement); format: cell-based; parameters: expressed in transfected cells; captured on streptavidin agarose
# T1 sequence (O14894 1-197): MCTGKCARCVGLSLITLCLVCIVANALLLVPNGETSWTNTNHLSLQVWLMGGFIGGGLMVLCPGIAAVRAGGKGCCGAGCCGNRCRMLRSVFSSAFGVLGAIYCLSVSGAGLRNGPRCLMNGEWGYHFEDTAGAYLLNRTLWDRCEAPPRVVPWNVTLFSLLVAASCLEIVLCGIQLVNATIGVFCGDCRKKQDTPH
# Excerpt: In addition, the isoxazole compounds are capable of reversing both (i) an increase in PD-L1 expression and stabilization through direct binding mediated by TM4SF5 and (ii) induction of PD-1 expression in T cells, which suppresses T-cell activation and cancer cell killing functions.
concentrations at which effects were exhibited [3],SMILES,body weight [1],"inhibitory effect on liver cancer formation ([1]; 5 mg/kg IP twice a week, 6 times, images (FIG. 21b))",tumor volume ([1]; 5 mg/kg IP twice a week),PD-L1 expression [1],SLAMF7 staining [1],expression of TM4SF5 [1],"expressions of Ki67, AFP, F4/80, CCL2 and CCL5, and laminin γ2 [1]",cancer formation [1],activation by PMA/INO (Granzyme B production) [2],"expression of Granzyme B and PD-1 ([2]; PMA (25 ng/ml) and INO (1 µg/ml), 2.5 µM alone (FIG. 18b))","level of Granzyme B ([2]; PMA/INO, 2.5 µM together with IL-21 50 ng/ml (FIG. 18b))"
≤ 1 µM,"Cc1ccc(C(=O)Nc2ccc(-c3cc(-c4ccc(O)cc4)no3)cc2)cc1 [ST-5-002, N-(4-(3-(4-hydroxyphenyl)isoxazole-5-yl)phenyl)-4-methylbenzamide]",not affected,distinct,significantly reduced,decrease,infiltrating into the cancer site,not significantly different,significantly inhibited and lowered,inhibited,further increased,further increased,even higher
≤ 1 µM,"CC(=O)Nc1ccc(-c2cc(-c3ccc(O)cc3)no2)cc1 [ST-5-001, N-(4-(3-(4-hydroxyphenyl)isoxazole-5-yl)phenyl)acetamide]",not affected,,significantly reduced,decrease,infiltrating into the cancer site,not significantly different,significantly inhibited and lowered,inhibited,further increased,,
